Test system: 361931-004-R-J1-PDC multicell spheroid viability
Assay: Anticancer human tumor 361931-004-R-J1-PDC patient-derived colon adenocarcinoma cell line growth inhibition [PI3K]
Settings: for IC50: curve of first compound; for viability, T/C: stronger effect = lower value
Outline: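 Complex 3D spheroids (cancer cells + endothelial HUVEC + mesenchymal stem cells); drug pairs of targeted agent x inavolisib/alpelisib/duvelisib/copanlisib; half-log series from ~Cmax, max 10 microM if Cmax unknown; endpoint viability.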

[1] = second compound 0.00316 µM, first compound 0.0316 µM
[2] = second compound 0.00316 µM, first compound 0.1 µM
[3] = second compound 0.00316 µM, first compound 0.316 µM
[4] = second compound 0.00316 µM, first compound 1 µM
[5] = second compound 0.00316 µM, first compound 3.16 µM
[6] = second compound 0.00316 µM, first compound 10 µM
[7] = second compound 0.01 µM, first compound 0.0316 µM
[8] = second compound 0.01 µM, first compound 0.1 µM
[9] = second compound 0.01 µM, first compound 0.316 µM
[10] = second compound 0.01 µM, first compound 1 µM
[11] = second compound 0.01 µM, first compound 3.16 µM
[12] = second compound 0.01 µM, first compound 10 µM
[13] = second compound 0.0316 µM, first compound 0.0316 µM
[14] = second compound 0.0316 µM, first compound 0.1 µM
[15] = second compound 0.0316 µM, first compound 0.316 µM
[16] = second compound 0.0316 µM, first compound 1 µM
[17] = second compound 0.0316 µM, first compound 3.16 µM
[18] = second compound 0.0316 µM, first compound 10 µM
[19] = second compound 0.1 µM, first compound 0.0316 µM
[20] = second compound 0.1 µM, first compound 0.1 µM
[21] = second compound 0.1 µM, first compound 0.316 µM
[22] = second compound 0.1 µM, first compound 1 µM
[23] = second compound 0.1 µM, first compound 3.16 µM
[24] = second compound 0.1 µM, first compound 10 µM
[25] = second compound 0.316 µM, first compound 0.0316 µM
[26] = second compound 0.316 µM, first compound 0.1 µM
[27] = second compound 0.316 µM, first compound 0.316 µM
[28] = second compound 0.316 µM, first compound 1 µM
[29] = second compound 0.316 µM, first compound 3.16 µM
[30] = second compound 0.316 µM, first compound 10 µM
[31] = second compound 1 µM, first compound 0.0316 µM
[32] = second compound 1 µM, first compound 0.1 µM
[33] = second compound 1 µM, first compound 0.316 µM
[34] = second compound 1 µM, first compound 1 µM
[35] = second compound 1 µM, first compound 3.16 µM
[36] = second compound 1 µM, first compound 10 µM
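Further: spheroids exposed to agents for seven days before readout.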

Q: Which results are given for `CC1(C)CCC(CN2CCN(c3ccc(C(=O)NS(=O)(=O)c4ccc(NCC5CCOCC5)c([N+](=O)[O-])c4)c(Oc4cnc5[nH]ccc5c4)c3)CC2)=C(c2ccc(Cl)cc2)C1` + CC(Nc1ccc2c(c1)OCCn1cc(N3C(=O)OCC3C(F)F)nc1-2)C(N)=O?
A: IC50 (second compound 0.00316 µM): 4.2 µM; IC50 (second compound 0.01 µM): 4.29 µM; IC50 (second compound 0.0316 µM): 4.05 µM; IC50 (second compound 0.1 µM): 3.93 µM; IC50 (second compound 0.316 µM): 3.36 µM; IC50 (second compound 1 µM): 3.32 µM; viability, T/C [1]: 104%; viability, T/C [2]: 98.4%; viability, T/C [3]: 112%; viability, T/C [4]: 101%; viability, T/C [5]: 65.6%; viability, T/C [6]: 2.39%; viability, T/C [7]: 93.3%; viability, T/C [8]: 99.7%; viability, T/C [9]: 91.5%; viability, T/C [10]: 103%; viability, T/C [11]: 67%; viability, T/C [12]: 2.81%; viability, T/C [13]: 99.1%; viability, T/C [14]: 109%; viability, T/C [15]: 92.1%; viability, T/C [16]: 101%; viability, T/C [17]: 63%; viability, T/C [18]: 2.11%; viability, T/C [19]: 99%; viability, T/C [20]: 99.8%; viability, T/C [21]: 95.9%; viability, T/C [22]: 85.3%; viability, T/C [23]: 61.9%; viability, T/C [24]: 1.48%; viability, T/C [25]: 86.7%; viability, T/C [26]: 84.7%; viability, T/C [27]: 87.8%; viability, T/C [28]: 84.3%; viability, T/C [29]: 52.7%; viability, T/C [30]: 1.87%; viability, T/C [31]: 78%; viability, T/C [32]: 80.7%; viability, T/C [33]: 75.8%; viability, T/C [34]: 71.2%; viability, T/C [35]: 52.4%; viability, T/C [36]: 1.28%

Q: What does the source list for `C[C@@H](NC(=O)c1ncnc(N)c1Cl)c1ncc(C(=O)Nc2cc(C(F)(F)F)c(Cl)cn2)s1` + CC(Nc1ncnc2nc[nH]c12)c1cc2cccc(Cl)c2c(=O)n1-c1ccccc1?
A: IC50 (second compound 0.0316 µM): > 10 µM; IC50 (second compound 0.1 µM): > 10 µM; IC50 (second compound 0.316 µM): > 10 µM; IC50 (second compound 1 µM): > 10 µM; IC50 (second compound 3.16 µM): > 10 µM; IC50 (second compound 10 µM): > 10 µM; viability, T/C [13]: 105%; viability, T/C [14]: 102%; viability, T/C [15]: 99.2%; viability, T/C [16]: 94.1%; viability, T/C [17]: 104%; viability, T/C [18]: 98%; viability, T/C [19]: 101%; viability, T/C [20]: 101%; viability, T/C [21]: 96%; viability, T/C [22]: 95.3%; viability, T/C [23]: 104%; viability, T/C [24]: 94.6%; viability, T/C [25]: 105%; viability, T/C [26]: 103%; viability, T/C [27]: 107%; viability, T/C [28]: 104%; viability, T/C [29]: 106%; viability, T/C [30]: 93.7%; viability, T/C [31]: 98.8%; viability, T/C [32]: 99.9%; viability, T/C [33]: 107%; viability, T/C [34]: 103%; viability, T/C [35]: 106%; viability, T/C [36]: 91.7%; viability, T/C (second compound 3.16 µM, first compound 0.0316 µM): 88.6%; viability, T/C (second compound 3.16 µM, first compound 0.1 µM): 110%; viability, T/C (second compound 3.16 µM, first compound 0.316 µM): 107%; viability, T/C (second compound 3.16 µM, first compound 1 µM): 99.5%; viability, T/C (second compound 3.16 µM, first compound 3.16 µM): 107%; viability, T/C (second compound 3.16 µM, first compound 10 µM): 101%; viability, T/C (second compound 10 µM, first compound 0.0316 µM): 101%; viability, T/C (second compound 10 µM, first compound 0.1 µM): 96.7%; viability, T/C (second compound 10 µM, first compound 0.316 µM): 107%; viability, T/C (second compound 10 µM, first compound 1 µM): 107%; viability, T/C (second compound 10 µM, first compound 3.16 µM): 104%; viability, T/C (second compound 10 µM, first compound 10 µM): 87.7%

Q: How did the IC50 (second compound 0.00316 µM) turn out when `Cn1nccc1Nc1nccc(-c2ccn(C(CO)c3ccc(Cl)c(F)c3)c(=O)c2)n1` (stereo unspecified) + COc1c(OCCCN2CCOCC2)ccc2c3n(c(=NC(=O)c4cnc(N)nc4)nc12)CCN3 was run?
A: 9.03 µM

Q: And the IC50 (second compound 0.01 µM)?
A: 4.53 µM

Q: And the IC50 (second compound 0.0316 µM)?
A: 1.49 µM

Q: What about the IC50 (second compound 0.1 µM) of the same compound?
A: 0.45 µM

Q: What about the IC50 (second compound 0.316 µM) of the same compound?
A: 0.0325 µM

Q: And the IC50 (second compound 1 µM)?
A: < 0.0316 µM

Q: And the viability, T/C [1]?
A: 92.5%

Q: What about the viability, T/C [2] of the same compound?
A: 98.3%

Q: And the viability, T/C [3]?
A: 90.9%

Q: And the viability, T/C [4]?
A: 86.3%

Q: And the viability, T/C [5]?
A: 77%

Q: And the viability, T/C [6]?
A: 47.2%

Q: What about the viability, T/C [7] of the same compound?
A: 87.9%

Q: And the viability, T/C [8]?
A: 94.4%

Q: What about the viability, T/C [9] of the same compound?
A: 88.7%

Q: And the viability, T/C [10]?
A: 80.8%

Q: And the viability, T/C [11]?
A: 59.9%

Q: What about the viability, T/C [12] of the same compound?
A: 28.6%

Q: And the viability, T/C [13]?
A: 92%

Q: What about the viability, T/C [14] of the same compound?
A: 87.7%

Q: What about the viability, T/C [15] of the same compound?
A: 77.4%

Q: What about the viability, T/C [16] of the same compound?
A: 64%

Q: What about the viability, T/C [17] of the same compound?
A: 27.9%

Q: What about the viability, T/C [18] of the same compound?
A: 12.6%

Q: And the viability, T/C [19]?
A: 80.8%

Q: What about the viability, T/C [20] of the same compound?
A: 72.3%

Q: And the viability, T/C [21]?
A: 58.3%

Q: What about the viability, T/C [22] of the same compound?
A: 32.8%

Q: And the viability, T/C [23]?
A: 8.5%

Q: And the viability, T/C [24]?
A: 3.74%

Q: And the viability, T/C [25]?
A: 50.8%

Q: And the viability, T/C [26]?
A: 40.2%

Q: What about the viability, T/C [27] of the same compound?
A: 26.1%

Q: What about the viability, T/C [28] of the same compound?
A: 8.67%

Q: And the viability, T/C [29]?
A: 2.32%

Q: And the viability, T/C [30]?
A: 2.04%

Q: What about the viability, T/C [31] of the same compound?
A: 18.4%

Q: And the viability, T/C [32]?
A: 13.3%

Q: What about the viability, T/C [33] of the same compound?
A: 8.6%

Q: What about the viability, T/C [34] of the same compound?
A: 2.23%

Q: What about the viability, T/C [35] of the same compound?
A: 1.89%

Q: And the viability, T/C [36]?
A: 1.61%
